From patent US11684592B2, “Multiresistant-tumour sensitiser” (Instituto Nacional de Neurologia Y Neurocirugia Manuel …, priority 2017, dated 2023)

What was measured:
[1] = tested on: p62, Beclin1 or LC3 in C6 cells; test: Analysis of autophagy markers by immunofluorescence (simple staining); format: cell-based, rat; conditions: Cur-[G2]-OH 3-150 μM, 6 and 24 hours
Experimental: Simple staining: 1×10^4 C6 cells/well were cultured with 100 μL of DMEM medium in 96-well plates and incubated 24 hours. Cells were treated with different concentrations of Cur-[G2]-OH (3, 6, 15, 30, 45, 90 and 150 μM), and incubated for 6 and 24 hours. Control cells were replaced only with fresh DMEM medium. The cells were washed with cold PBS and fixed with a mixture of methanol/acetone (1:1) for 5 minutes; they were washed with PBS and incubated with 1% BSA in PBST. Subsequently, they were incubated with the primary antibody (p62, Beclin1 or LC3) at 4° C. overnight. They were washed and incubated with the fluorochrome-conjugated secondary antibody (Abcam® ab150073 Alexa fluor 488) for 1 hour at room temperature. They were washed with PBS and the nucleus stained with Hoechst 33342 (0.1 μg/ml). The images were observed on a Cytation 3® multimodal plate reader and captured and analyzed with the Gen5® 2.06 program using the DAPI (λ=377-447 nm) and GFP (λ=469-525 nm) filters.

C6 cells [2] = test: Determination of Reactive Oxygen Species (ROS); format: cell-based, rat; conditions: 1 hour
Experimental: Intracellular generation of ROS was evaluated in real time by fluorescence microscopy using the ENZ-51011 detection kit (Enzo® Life Sciences). 5×10^3 cells per well were grown in half-area 96 wells plates (Costar 3595®) and incubated for 24 hours. Then, were incubated for 1 hour, with curcumin (2, 15, 30 or 100 μM), or Cur-[G2]-OH (6, 45, 90 or 300 μM) alone or in the presence of the ROS inhibitor N-Acetyl Cysteine (NAC, 400 μM) according to the manufacturer's instructions. As controls, pyocyanin (200 μM) was used as an inducer and NAC […] as an inhibitor, or DMEM medium with or without DMSO as a negative control. At the end of treatment, the test solutions were withdrawn, and the ROS detection solution was added. The plates were observed under bright field and fluorescence microscopy with the GFP filter (λ=469-525 nm), in the Cytation 3® multimodal reader (BioTek®, USA), and the images were captured and analyzed with the Gen5 2.06 program (BioTek®, USA). The experiments were performed five times.

C6 cells [3] = test: Sensitization of tumor cells to oxidative stress (FeSO4), MTT cell viability; format: cell-based, rat
Experimental: C6 cells (1×10^5 cells/well) were seeded in 96 wells plates. At 24 h, a group of cells were treated with FeSO4 at concentrations of 50, 80, 100 and 150 μM or Cur-[G2]-OH at concentrations of 240 or 300 μM and incubated for an additional 24 hours.
Another group of cells were previously incubated by 2 h with the oxidizing agent FeSO4 at concentrations of 50, 80, 100 and 150 μM and subsequently washed for addition to cur-[G2]-OH at concentrations of 240 or 300 μM, continued to incubate until 24 h was completed. A last group of cells, first was treated with Cur-[G2]-OH at concentrations of 240 or 300 μM for 4 h and subsequently changed the medium and FeSO4 was added to concentrations of 50, 80, 100 or 150 μM continuing incubation for 20 hours more.
The colorimetric test based on the reduction of tetrazolium dye MTT (3-(4,5-dimethyltiazol-2-yl)-2,5-diphenyltetrazolium bromide) was used to determine cell viability (Terry L. et al. Cell Viability Assays. May 1, 2013). The formazan crystals were dissolved with a mixture of isopropanol/acetic acid and the absorbance was measured at 540 nm in a microplate reader (Molecular Devices, Sunnyvale, Calif., USA).
The data were statistically analyzed using a one-way ANOVA analysis, and Newman Keuls post-analysis for multiple comparisons (n=3, Mean=SEM).

normal cells = test: Toxicity to normal cells; format: cell-based; conditions: high concentration

Structure (SMILES): COc1cc(/C=C/C(=O)/C=C(O)/C=C/c2ccc(OC(=O)C(C)(COC(=O)C(C)(CO)CO)COC(=O)C(C)(CO)CO)c(OC)c2)ccc1OC(=O)C(C)(COC(=O)C(C)(CO)CO)COC(=O)C(C)(CO)CO [Cur-[G-2]-OH]
- expression of Beclin1 (immunofluorescence) [1]: induces the expression of proteins Beclin1 and LC3, in a concentration-dependent manner
- expression of LC3 (immunofluorescence) [1]: induces the expression of proteins Beclin1 and LC3, in a concentration-dependent manner
- expression of p62 (immunofluorescence) [1]: significantly decreasing expression of p62
- generation of ROS (C6 cells [2]; curcumin 2, 15, 30 or 100 μM or Cur-[G2]-OH 6, 45, 90 or 300 μM, without NAC): promotes the generation of ROS in a concentration-depending manner
- generation of ROS in the presence of N-acetyl Cysteine (NAC) (C6 cells [2]; with NAC 400 μM): not substantially modified with the use of an antioxidant (NAC)
- cell viability / cytotoxicity in combination with FeSO4 (MTT) (C6 cells [3]; C6 cells first exposed to FeSO4 50-150 μM for 2 h, then Cur-[G2]-OH 240 or 300 μM, or administered simultaneously): This synergism does not exist
- cell viability / cytotoxicity in combination with FeSO4 (MTT) (C6 cells [3]; C6 cells pre-incubated with Cur-[G2]-OH 240 or 300 μM for 4 h, then FeSO4 50-150 μM for 20 h): synergism between Cur-[G-2]-OH and FeSO4
- toxicity to normal cells (normal cells): not toxic to normal cells at high concentration
